Source: ChEMBL document CHEMBL1150040 (Bioorg Med Chem Lett, 1995)

How the values were obtained:
[1] = target: T1, Protein kinase C beta type (Homo sapiens, UniProt P05771); test: Inhibition of human Protein kinase C beta 1
[2] = target: Protein kinase C eta type (Homo sapiens, UniProt P24723); test: Inhibition of human protein kinase C eta
[3] = target: T1, Protein kinase C beta type; test: Inhibition of human Protein kinase C beta 2
[4] = target: Protein kinase C alpha type (Homo sapiens, UniProt P17252); test: Inhibition of human Protein kinase C alpha
[5] = target: T2, Protein kinase C zeta type (Homo sapiens, UniProt Q05513); test: Inhibition of Protein kinase C zeta
T2 sequence (Q05513 whole entry): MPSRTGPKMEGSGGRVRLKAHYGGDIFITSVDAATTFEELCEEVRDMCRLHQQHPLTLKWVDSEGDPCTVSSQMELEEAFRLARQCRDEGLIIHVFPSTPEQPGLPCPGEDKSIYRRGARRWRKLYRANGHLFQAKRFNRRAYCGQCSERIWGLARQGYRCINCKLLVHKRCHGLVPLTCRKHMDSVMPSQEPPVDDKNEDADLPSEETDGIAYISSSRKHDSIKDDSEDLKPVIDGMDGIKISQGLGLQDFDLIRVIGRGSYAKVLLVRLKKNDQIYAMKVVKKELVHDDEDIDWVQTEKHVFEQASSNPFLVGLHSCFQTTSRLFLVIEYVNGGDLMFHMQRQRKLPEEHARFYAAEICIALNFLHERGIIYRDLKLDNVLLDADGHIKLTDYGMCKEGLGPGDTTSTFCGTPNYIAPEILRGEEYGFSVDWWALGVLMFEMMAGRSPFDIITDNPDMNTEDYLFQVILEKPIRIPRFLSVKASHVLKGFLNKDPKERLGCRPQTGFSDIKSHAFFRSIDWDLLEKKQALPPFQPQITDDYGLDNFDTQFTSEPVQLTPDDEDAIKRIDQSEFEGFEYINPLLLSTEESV

[6] = target: Protein kinase C gamma type (Homo sapiens, UniProt P05129); test: Inhibition of human Protein kinase C gamma
[7] = target: Protein kinase C delta type (Homo sapiens, UniProt Q05655); test: Inhibition of human Protein kinase C delta
Protein kinase C delta type, sequence (Q05655 whole entry): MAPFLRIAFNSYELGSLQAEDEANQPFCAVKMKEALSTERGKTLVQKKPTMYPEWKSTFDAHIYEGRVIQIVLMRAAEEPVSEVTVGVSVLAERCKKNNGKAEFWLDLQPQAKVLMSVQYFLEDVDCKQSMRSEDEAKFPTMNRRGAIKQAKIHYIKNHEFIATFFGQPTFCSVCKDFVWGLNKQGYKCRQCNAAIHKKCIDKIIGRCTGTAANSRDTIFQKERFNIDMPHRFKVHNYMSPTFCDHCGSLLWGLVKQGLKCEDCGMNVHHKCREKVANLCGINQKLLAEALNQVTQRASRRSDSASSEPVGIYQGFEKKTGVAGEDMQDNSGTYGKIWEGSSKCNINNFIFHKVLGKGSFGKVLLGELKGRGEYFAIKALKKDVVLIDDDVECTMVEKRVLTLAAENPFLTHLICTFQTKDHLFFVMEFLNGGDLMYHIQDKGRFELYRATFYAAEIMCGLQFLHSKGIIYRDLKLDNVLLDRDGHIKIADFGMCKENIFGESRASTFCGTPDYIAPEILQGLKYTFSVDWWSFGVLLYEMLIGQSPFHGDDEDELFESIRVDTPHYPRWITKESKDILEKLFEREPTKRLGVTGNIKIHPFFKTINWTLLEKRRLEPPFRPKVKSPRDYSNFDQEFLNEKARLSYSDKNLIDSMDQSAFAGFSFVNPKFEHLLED

[8] = target: T3, Protein kinase C epsilon type (Homo sapiens, UniProt Q02156); test: Inhibition of human Protein kinase C epsilon
T3 sequence (Q02156 whole entry): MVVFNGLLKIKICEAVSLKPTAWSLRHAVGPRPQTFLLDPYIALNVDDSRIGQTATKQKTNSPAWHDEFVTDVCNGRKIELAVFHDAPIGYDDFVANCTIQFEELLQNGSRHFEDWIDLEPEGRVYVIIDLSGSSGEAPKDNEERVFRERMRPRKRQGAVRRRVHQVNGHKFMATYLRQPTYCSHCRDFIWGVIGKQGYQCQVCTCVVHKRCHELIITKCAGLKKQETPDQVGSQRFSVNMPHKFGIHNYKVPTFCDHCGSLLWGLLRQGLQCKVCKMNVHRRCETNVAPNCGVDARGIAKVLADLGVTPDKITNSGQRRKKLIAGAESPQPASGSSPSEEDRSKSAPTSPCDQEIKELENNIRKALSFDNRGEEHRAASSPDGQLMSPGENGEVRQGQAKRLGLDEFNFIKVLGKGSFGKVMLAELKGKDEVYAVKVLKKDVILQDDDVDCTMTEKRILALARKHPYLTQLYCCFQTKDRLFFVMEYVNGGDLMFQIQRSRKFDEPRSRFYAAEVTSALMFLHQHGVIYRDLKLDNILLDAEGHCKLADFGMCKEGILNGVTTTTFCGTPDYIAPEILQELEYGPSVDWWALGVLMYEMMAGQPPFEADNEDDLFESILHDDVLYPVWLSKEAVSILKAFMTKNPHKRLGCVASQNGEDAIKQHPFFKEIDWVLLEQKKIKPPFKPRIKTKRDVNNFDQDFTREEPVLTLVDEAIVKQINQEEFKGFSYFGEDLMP

T1 sequence (P05771 whole entry): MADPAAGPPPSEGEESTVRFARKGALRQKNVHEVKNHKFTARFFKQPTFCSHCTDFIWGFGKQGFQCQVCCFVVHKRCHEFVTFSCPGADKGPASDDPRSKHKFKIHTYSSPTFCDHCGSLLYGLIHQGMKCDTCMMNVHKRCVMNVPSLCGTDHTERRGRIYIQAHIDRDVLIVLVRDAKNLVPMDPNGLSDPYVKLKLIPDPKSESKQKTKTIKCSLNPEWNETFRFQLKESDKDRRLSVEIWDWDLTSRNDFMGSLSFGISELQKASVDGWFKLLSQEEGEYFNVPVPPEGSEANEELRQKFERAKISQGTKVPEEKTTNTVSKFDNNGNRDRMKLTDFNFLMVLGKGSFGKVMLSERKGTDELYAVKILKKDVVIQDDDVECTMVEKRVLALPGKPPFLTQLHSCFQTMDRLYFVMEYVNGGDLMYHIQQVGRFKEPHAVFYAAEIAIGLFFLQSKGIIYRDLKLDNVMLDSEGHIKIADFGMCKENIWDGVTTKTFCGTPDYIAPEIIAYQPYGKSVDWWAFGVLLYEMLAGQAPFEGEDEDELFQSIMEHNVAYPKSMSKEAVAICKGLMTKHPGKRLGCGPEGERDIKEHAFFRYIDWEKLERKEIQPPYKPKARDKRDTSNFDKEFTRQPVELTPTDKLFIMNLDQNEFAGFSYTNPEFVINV
Protein kinase C eta type, sequence (P24723 whole entry): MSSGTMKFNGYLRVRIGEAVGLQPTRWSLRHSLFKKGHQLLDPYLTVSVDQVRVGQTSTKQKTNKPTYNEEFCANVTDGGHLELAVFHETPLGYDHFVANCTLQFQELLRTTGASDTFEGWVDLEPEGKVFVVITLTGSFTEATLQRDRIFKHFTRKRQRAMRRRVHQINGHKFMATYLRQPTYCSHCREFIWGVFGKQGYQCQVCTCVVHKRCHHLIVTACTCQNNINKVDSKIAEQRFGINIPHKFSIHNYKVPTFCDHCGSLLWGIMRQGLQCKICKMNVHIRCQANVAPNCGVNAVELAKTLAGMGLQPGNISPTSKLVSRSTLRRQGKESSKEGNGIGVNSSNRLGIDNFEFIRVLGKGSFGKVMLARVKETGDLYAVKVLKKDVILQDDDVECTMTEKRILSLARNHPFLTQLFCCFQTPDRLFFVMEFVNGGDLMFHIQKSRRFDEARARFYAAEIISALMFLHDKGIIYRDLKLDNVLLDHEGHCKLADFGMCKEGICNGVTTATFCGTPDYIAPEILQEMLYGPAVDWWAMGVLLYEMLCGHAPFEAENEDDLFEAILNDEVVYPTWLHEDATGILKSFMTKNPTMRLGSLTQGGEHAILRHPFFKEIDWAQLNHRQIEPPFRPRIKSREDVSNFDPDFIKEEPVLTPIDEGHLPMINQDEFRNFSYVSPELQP

| IC50 [1] | IC50 [2] | IC50 [3] | IC50 [4] | IC50 [5] | IC50 [6] | IC50 [7] | IC50 [8] | Structure (SMILES) |
| --- | --- | --- | --- | --- | --- | --- | --- | --- |
| 32 nM | 22 nM | 44 nM | 74 nM | 3500 nM | 34 nM | 32 nM |  | O=C(N[C@@H]1CNCCC[C@H]1OC(=O)c1cc(O)c(C(=O)c2c(O)cccc2C(=O)O)c(O)c1)c1ccc(O)cc1 (racemic) [BALANOL] |
| 40 nM | 0.6 nM | 50 nM | 40 nM |  | 10 nM | 0.9 nM | 50 nM | O=C(N[C@@H]1CCC[C@H]1OC(=O)c1cc(O)c(C(=O)c2c(O)cccc2C(=O)O)c(O)c1)c1ccc(O)cc1 |

Further lines, the compound ahead of its results:

| Structure (SMILES) | IC50 [1] | IC50 [2] | IC50 [3] | IC50 [4] | IC50 [5] | IC50 [6] | IC50 [7] | IC50 [8] |
| --- | --- | --- | --- | --- | --- | --- | --- | --- |
| O=C(N[C@@H]1CNC[C@H]1OC(=O)c1cc(O)c(C(=O)c2c(O)cccc2C(=O)O)c(O)c1)c1ccc(O)cc1 | 17 nM | 4 nM | 33 nM | 22 nM | > 150 nM | 13 nM | 5 nM | 10 nM |
| O=C(N[C@@H]1CNCC[C@H]1OC(=O)c1cc(O)c(C(=O)c2c(O)cccc2C(=O)O)c(O)c1)c1ccc(O)cc1 | 2200 nM | 80 nM | 4700 nM | 5100 nM | > 150000 nM | 2200 nM | 50 nM | 1800 nM |
| O=C(N[C@@H]1CCCCC[C@H]1OC(=O)c1cc(O)c(C(=O)c2c(O)cccc2C(=O)O)c(O)c1)c1ccc(O)cc1 | 220 nM | 60 nM | 430 nM | 270 nM | > 150000 nM | 60 nM | 90 nM | 280 nM |
